# Measured values published in paper PMC7450530 (Biochemistry, 2019).
# Assays:
# gyrase = settings: cited from earlier work
# [1] = molecular target: T1, B. anthracis wild-type gyrase (Bacillus anthracis, UniProt A0A6H3A7B1); type: biochemical; settings: read-out: IC50, inhibition of DNA supercoiling
# E. coli wild-type gyrase [2] = molecular target: T2, E. coli wild-type gyrase (Escherichia coli, UniProt P0AES4); type: biochemical; settings: read-out: IC50, inhibition of DNA supercoiling
# [3] = molecular target: T3, M. tuberculosis wild-type gyrase (Mycobacterium tuberculosis, UniProt P9WG47); type: biochemical
# E. coli GyrA^S83L gyrase [4] = molecular target: T4, E. coli GyrA^S83L gyrase (Escherichia coli, UniProt P0AES4, S83L); type: biochemical
# [5] = molecular target: T5, B. anthracis wild-type topoisomerase IV (Bacillus anthracis, UniProt A0A6H3AG07); type: biochemical; settings: read-out: IC50, inhibition of DNA decatenation
# [6] = molecular target: T6, E. coli wild-type topoisomerase IV (Escherichia coli, UniProt P0AFI2); type: biochemical; settings: read-out: IC50, inhibition of DNA decatenation
# [7] = molecular target: T7, E. coli ParC^S80L topoisomerase IV (Escherichia coli, UniProt P0AFI2, S80L); type: biochemical; settings: read-out: IC50, inhibition of DNA decatenation
# [8] = molecular target: T1, B. anthracis wild-type gyrase; type: biochemical
# E. coli wild-type gyrase [9] = molecular target: T2, E. coli wild-type gyrase; type: biochemical
# [10] = molecular target: T3, M. tuberculosis wild-type gyrase; type: biochemical; remark: listed apart in the source
# E. coli GyrA^S83L gyrase [11] = molecular target: T4, E. coli GyrA^S83L gyrase; type: biochemical; remark: listed apart in the source
# [12] = molecular target: T5, B. anthracis wild-type topoisomerase IV; type: biochemical
# [13] = molecular target: T6, E. coli wild-type topoisomerase IV; type: biochemical
# [14] = molecular target: T7, E. coli ParC^S80L topoisomerase IV; type: biochemical
# E. coli = settings: cited from earlier work
# [15] = system: Mycobacterium tuberculosis; settings: cited from earlier work
# [16] = read-out: EC50, enhancement of single-stranded DNA cleavage
structure (smiles),measurement,setting,value
O=c1ccc2ncc(=O)n3c2n1C[C@H]3CN1CCC(NCc2cc3c(cn2)OCCC3)CC1 [gepotidacin],type of gyrase-mediated DNA breaks induced,gyrase,induces only gyrase-mediated single-stranded DNA breaks
COc1ccc2ncc(C#N)c(CCN3CCC(NCc4cc5c(cn4)OCS5)CC3)c2c1 [GSK299423],type of gyrase-mediated DNA breaks induced,gyrase,induces only gyrase-mediated single-stranded DNA breaks
CC[C@H](C)n1cc(C)c2c(C(=O)NCc3c(C)cc(C)[nH]c3=O)cc(-c3ccc(N4CCNCC4)nc3)cc21 [GSK126],IC50,[1],~400 nM
same,IC50,E. coli wild-type gyrase [2],~2000 nM
same,maximal decrease of supercoiling activity,[3],60%
same,IC50,"[3]; read-out: IC50, inhibition of DNA supercoiling",~75000 nM
same,fold more potent in supercoiling inhibition than against wild-type enzyme,E. coli GyrA^S83L gyrase [4],5–10 fold
same,IC50,[5],~2300 nM
same,IC50,[6],~1400 nM
same,IC50,[7],~1400 nM
same,induction of double-stranded DNA breaks,[8],no ability to induce double-stranded breaks
same,induction of double-stranded DNA breaks,E. coli wild-type gyrase [9],no ability to induce double-stranded breaks
same,levels of single-stranded DNA cleavage in the presence of ATP vs absence,E. coli wild-type gyrase [9],considerably lower
same,induction of double-stranded DNA breaks,[10],no ability to induce double-stranded breaks
same,enhancement of DNA cleavage,E. coli GyrA^S83L gyrase [11],no ability to enhance DNA cleavage
same,enhancement of double-stranded DNA breaks,[12],no enhancement of double-stranded breaks was observed
same,EC50,[12]; [16],< 500 nM
same,ability to induce DNA cleavage in the presence of ATP,[13],marginal
same,enhancement of double-stranded DNA breaks,[13],no enhancement of double-stranded breaks was observed
same,EC50,[13]; [16],< 500 nM
same,induction of DNA cleavage,[14],ineffective at inducing DNA cleavage
same,Minimal Inhibitory Concentration,E. coli,0.26 µM
same,activity against the bacterium in a screen,[15],moderate activity
